Common to all, as to experiment: NCI anticancer screen, dose series, 48 h
The subject of test [1] is CCRF-CEM.
In test [2] the test system is COLO 205.
Test [3] concerns HCC 2998.
In test [4] the test system is HL-60.
Test [5] has as its system HOP-62.
The subject of test [6] is HOP-92.
Test [7] relates to K562.
The subject of test [8] is M14.
In test [9] the test system is SF-268.
Test [10] deals with SF-295.
In test [11] the test system is SF-539.
Test [12] has as its system SNB-19.
The subject of test [13] is U-251.
Test [14] has as its system UACC-257.
The test system of test [15] is UACC-62.
The subject of test [16] is UO-31.
Test [17] deals with DU-145.
In test [18] the test system is MDA-N.
The subject of test [19] is PC-3.

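Growth conditions: 96-well plates. Treatment: test compound, 48 hours, 5 concentrations. Analysis: linear interpolation between bracketing concentrations; unreached endpoints set to highest concentration. GI50 marks 50% less growth.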 Active and inactive are the calls of the source. Cut-off read from the data, not from the text of the source: active = GI50 up to about 1.1 µM and inactive = higher.

In the case of `NC(=O)COc1ccccc1`, the GI50 in test [1], in [2], in test [3], in test [4], in test [5] and in test [6] was > 100 µM (inactive) throughout. Further, the GI50 in test [7], in test [8], in test [9], in test [10], in test [11] and in test [12] was > 100 µM (inactive) in each case. Also, the GI50 in test [13], in test [14], in test [15] and in [16] was > 100 µM (inactive) each time.

Consider `O=C1N=C2N=C(c3ccc(Cl)cc3)N(c3ccc(Cl)cc3)N2Sc2ccccc21`, for which the GI50 is > 100 µM (inactive) in test [1]; > 100 µM (inactive) in [2]; > 100 µM (inactive) in [3]; > 100 µM (inactive) in [4]; 36.1 µM (inactive) in test [5]; 86.5 µM (inactive) in test [6]. Moreover, the GI50 is > 100 µM (inactive) in [7]; > 100 µM (inactive) in test [8]; > 100 µM (inactive) in [9]; 64.6 µM (inactive) in [10]; > 100 µM (inactive) in test [11]; 47.2 µM (inactive) in test [12]. The GI50 in test [13] was 23.5 µM (inactive); in [14], > 100 µM (inactive); in [15], > 100 µM (inactive); in test [16] it was 32.4 µM (inactive).

Consider `CC(N)Cc1ccc(F)cc1` (stereo not drawn), for which the GI50 in test [1], in [2], in test [3], in test [4], in test [5] and in test [6] was > 100 µM (inactive) each time. Also, the GI50 in test [7], in test [8], in test [9], in [10], in [11] and in [12] was > 100 µM (inactive) throughout. Also, the GI50 in test [13], in test [14], in test [15] and in [16] was > 100 µM (inactive) in each case.

On to `CC(=O)OCC(=O)OC[C@H](OCc1ccccc1)[C@@H]1[C@H](OC(C)=O)C(=O)N1Cc1ccccc1`, for which the GI50 in test [1], in test [2], in test [17], in [5], in test [6] and in test [7] was > 100 µM (inactive) in each case. Also, the GI50 in test [8], in test [18], in test [19], in [9], in [10] and in test [12] was > 100 µM (inactive) each time. Besides, the GI50 in test [13], in test [14], in test [15] and in [16] was > 100 µM (inactive) throughout.

As for `CC1(C2CCC3(C)C(C2)C3Sc2ccccc2)OCCO1` (stereo not drawn), the GI50 was 17.9 µM (inactive) in test [1]; 19.4 µM (inactive) in test [2]; 20.1 µM (inactive) in [3]; 12.1 µM (inactive) in [4]; 20.2 µM (inactive) in [5]; 23.3 µM (inactive) in [6]. For the same compound, the GI50 in test [7] was 17.1 µM (inactive); in [8], 37 µM (inactive); in test [9], 34.8 µM (inactive); in [10], 21.5 µM (inactive); in test [11], 20.8 µM (inactive); in test [12], 27 µM (inactive). The GI50 in test [13] was 19.8 µM (inactive); in test [14], 17.5 µM (inactive); in test [15], 19.4 µM (inactive); in test [16], 12.6 µM (inactive).

As to `Cc1ccc(C2=Nc3ccccc3NC(=O)C2)cc1`, the GI50 in test [1] was 38 µM (inactive); in [2] it was > 100 µM (inactive); in test [3] it was > 100 µM (inactive); in test [4] it was 51.2 µM (inactive); in test [5] it was > 100 µM (inactive); in [6] it was 26.9 µM (inactive). For the same compound, the GI50 in test [7], in test [8], in test [9], in [10], in [11] and in test [12] was > 100 µM (inactive) throughout. Moreover, the GI50 was 32.2 µM (inactive) in test [13], > 100 µM (inactive) in [14], > 100 µM (inactive) in test [15] and > 100 µM (inactive) in test [16].

On to `CCNC(=O)OCc1c(COC(=O)NCC)c(-c2ccc(Cl)c(Cl)c2)n2c1CCC2`, for which the GI50 was 4.09 µM (inactive) in test [1]; 24.9 µM (inactive) in [2]; 14.3 µM (inactive) in [3]; 3.24 µM (inactive) in test [4]; 7.33 µM (inactive) in [5]; 5.5 µM (inactive) in test [6]. For the same compound, the GI50 in test [7] was 8.61 µM (inactive); in test [8] it was 11.1 µM (inactive); in [9] it was 6.55 µM (inactive); in test [10], 11.7 µM (inactive); in test [11], 11.5 µM (inactive); in test [12] it was 21.5 µM (inactive). Moreover, the GI50 in [13] is 10.5 µM (inactive); in test [14], 12.2 µM (inactive); in test [15], 5.92 µM (inactive); in test [16], 5.22 µM (inactive).

Regarding `N#CC1(Cc2ccccc2)CCCCN1C(=O)c1ccccc1` (stereo not drawn), the GI50 in [1] is > 100 µM (inactive); in [2], > 100 µM (inactive); in [3], > 100 µM (inactive); in test [4], 45.2 µM (inactive); in test [5] it was > 100 µM (inactive); in test [6], > 100 µM (inactive). Also, the GI50 in test [7], in [8], in test [9], in test [10], in test [11] and in test [12] was > 100 µM (inactive) throughout. Moreover, the GI50 is > 100 µM (inactive) in [13], > 100 µM (inactive) in [14], > 100 µM (inactive) in test [15] and 92.9 µM (inactive) in [16].

As to `NC1=NC(c2ccccc2)CC(c2cc(Cl)ccc2O)=N1` (stereo not drawn), the GI50 in [1] is 22.1 µM (inactive); in test [2], 19.5 µM (inactive); in [3] it was 15.9 µM (inactive); in [4], 16.1 µM (inactive); in [5], 16.2 µM (inactive); in test [6], 19.1 µM (inactive). Moreover, the GI50 in [7] is 10.1 µM (inactive); in test [8], 16.9 µM (inactive); in test [9], 16 µM (inactive); in test [10], 17.3 µM (inactive); in [11], 15 µM (inactive); in test [12], 16.7 µM (inactive). The GI50 was 16.3 µM (inactive) in test [13], 19.9 µM (inactive) in test [14], 15.8 µM (inactive) in test [15] and 15.2 µM (inactive) in test [16].

As for `COc1ccc(NC(=S)Nc2c(C)n(C)n(-c3ccccc3)c2=O)cc1`, the GI50 in test [1], in test [2], in test [17], in test [3], in test [4] and in test [5] was > 100 µM (inactive) each time. Also, the GI50 in [6], in [7], in test [8], in test [18], in [19] and in test [9] was > 100 µM (inactive) throughout. In addition, the GI50 in test [10], in test [11], in [12], in test [13], in [14] and in test [15] was > 100 µM (inactive) throughout. The GI50 in test [16] was > 100 µM (inactive).

Take `CO/N=C/c1cc(OC)c(OC)c(OC)c1`: the GI50 in [1], in test [2], in test [3], in test [4], in test [5] and in [6] was > 100 µM (inactive) in each case. Also, the GI50 in test [7], in test [8], in test [9], in test [10], in test [11] and in test [12] was > 100 µM (inactive) each time. Also, the GI50 in test [13], in test [14], in test [15] and in [16] was > 100 µM (inactive) in each case.

For `CC[C@@]1(O)C(=O)OCc2c1cc1n(c2=O)Cc2cc3cc(OC)ccc3nc2-1`, the GI50 in test [1] was 0.00457 µM (active); in [2] it was 0.116 µM (active); in test [17], 0.00439 µM (active); in test [3], 0.0276 µM (active); in test [4], 0.018 µM (active); in test [5] it was 0.00562 µM (active). Further, the GI50 was 0.0114 µM (active) in test [6]; 0.123 µM (active) in test [7]; 0.00718 µM (active) in test [8]; 0.142 µM (active) in test [18]; 0.0364 µM (active) in test [19]; 0.00509 µM (active) in test [9]. The GI50 in test [10] is 0.008 µM (active); in [11] it was 0.0033 µM (active); in test [12], 0.00843 µM (active); in test [13], 0.00407 µM (active); in [14] it was 0.15 µM (active); in test [15] it was 0.00244 µM (active). Also, in test [16], the GI50 is 0.0333 µM (active).

The record behind these values is ChEMBL document CHEMBL1201862, “PubChem BioAssay data set” (2004).
